# Measurements reported in US20110319392A1, “Thiazole Sulfonamide And Oxazole Sulfonamide Kinase Inhibitors” (priority 2009, published 2011).
# Columns and labels:
# [1] = system: HT-29 tumor cells; experiment: Cell growth inhibition assay (CellTiter-Glo), HT-29; format: cell-based, Human; conditions: Homo sapiens
# Method in brief: (§1)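 Cells seeded at 500/well (HN5 and HT-29 in high-glucose DMEM/10% FBS; A375P F11s in RPMI/10% FBS with pyruvate; SK-MEL-3 in McCoy's 5A/15% FBS), then exposed next day to 1:3 serial compound dilutions (0.2% DMSO) for 3 days at 37° C. CellTiter-Glo luminescence measured ATP; IC50 derived by 4-parameter fit.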
# [2] = biological target: T1, ErbB2 (Homo sapiens, UniProt P04626); experiment: ErbB-2 substrate phosphorylation assay (HTRF); format: biochemical
# T1 construct: made in house; host or cells: baculovirus expression system
# T1 sequence (P04626 23-1255): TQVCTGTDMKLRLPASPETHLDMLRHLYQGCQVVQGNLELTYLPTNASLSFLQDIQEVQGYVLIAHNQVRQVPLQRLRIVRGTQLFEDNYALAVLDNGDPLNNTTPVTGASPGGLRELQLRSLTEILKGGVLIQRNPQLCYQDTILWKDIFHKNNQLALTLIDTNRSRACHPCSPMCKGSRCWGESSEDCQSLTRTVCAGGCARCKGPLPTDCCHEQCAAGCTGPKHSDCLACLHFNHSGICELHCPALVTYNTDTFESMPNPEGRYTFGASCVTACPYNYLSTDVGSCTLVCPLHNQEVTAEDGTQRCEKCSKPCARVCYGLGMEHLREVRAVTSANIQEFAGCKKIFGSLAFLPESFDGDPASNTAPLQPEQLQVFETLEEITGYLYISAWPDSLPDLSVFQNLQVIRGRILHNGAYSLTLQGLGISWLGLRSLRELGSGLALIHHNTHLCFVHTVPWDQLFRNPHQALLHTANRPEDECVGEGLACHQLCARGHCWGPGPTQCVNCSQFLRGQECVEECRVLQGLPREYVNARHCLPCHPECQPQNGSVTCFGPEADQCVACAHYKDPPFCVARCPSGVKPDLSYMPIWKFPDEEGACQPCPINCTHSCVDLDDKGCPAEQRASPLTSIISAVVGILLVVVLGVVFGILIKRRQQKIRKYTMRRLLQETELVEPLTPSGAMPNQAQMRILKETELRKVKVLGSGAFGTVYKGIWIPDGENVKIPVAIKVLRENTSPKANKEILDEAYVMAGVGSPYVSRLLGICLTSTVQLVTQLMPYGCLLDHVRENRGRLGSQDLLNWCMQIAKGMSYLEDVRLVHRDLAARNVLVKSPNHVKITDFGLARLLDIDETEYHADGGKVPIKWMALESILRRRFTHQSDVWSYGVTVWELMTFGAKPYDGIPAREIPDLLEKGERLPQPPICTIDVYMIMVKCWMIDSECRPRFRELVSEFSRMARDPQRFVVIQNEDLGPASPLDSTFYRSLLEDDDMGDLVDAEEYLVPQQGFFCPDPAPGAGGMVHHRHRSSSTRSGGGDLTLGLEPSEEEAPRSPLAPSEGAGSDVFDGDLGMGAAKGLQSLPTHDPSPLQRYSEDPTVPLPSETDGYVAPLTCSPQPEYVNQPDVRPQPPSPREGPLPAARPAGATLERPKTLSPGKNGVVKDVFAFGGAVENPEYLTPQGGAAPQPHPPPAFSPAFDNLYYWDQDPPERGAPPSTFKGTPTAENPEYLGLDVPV
# Method in brief: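 Baculovirus-expressed EGFR (0.8 nM) or ErbB2 (10 nM) in enzyme mix, preincubated 1 h at 20 °C with compound (0.00027–47.6 μM final), then 90 min at 20 °C with substrate mix of 20 μM ATP, 0.8 uM biotinylated Peptide C, MnCl2, MOPS pH 7.5. Phosphotyrosine by HTRF; pIC50 reported.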
# [3] = system: SK-MEL-28 tumor cells; experiment: Cell growth inhibition assay (CellTiter-Glo), SK-MEL-28; format: cell-based, Human; conditions: 3 days incubation
# Method in brief: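 Cells plated at 500 cells/well in their growth media, dosed next day with nine-step 1:3 compound dilutions (final DMSO 0.2%), then incubated 3 days at 37° C, 5% CO2. Total ATP read by CellTiter-Glo luminescence as a surrogate for cell number; IC50 interpolated from 4-parameter fit versus DMSO controls.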
# [4] = system: SK-MEL-3 tumor cells; experiment: Cell growth inhibition assay (CellTiter-Glo), SK-MEL-3; format: cell-based, Human; conditions: for IC50: Homo sapiens, SK-MEL3
# Method in brief: as §1
Compound,IC50 [1],IC50 [2],"IC50 ([3]; Homo sapiens, SK-MEL-28, 72 h)",Activity in SK-MEL-3 Tumor Cells [4],IC50 [4],IC50 [3]
CC(C)c1nc(-c2cccc(NS(=O)(=O)C3CCCCC3)c2)c(-c2ccnc(Nc3ccc(N4CCOCC4)c(F)c3)n2)s1 [Example 38],> 1 µM,0.1 to 1 µM,0.1 to 1 µM,+ (activity of >1 μM in SK-MEL-3 tumor cells),–,–
CC(=O)N1CCN(c2ccc(Nc3nccc(-c4sc(C(C)C)nc4-c4cccc(NS(=O)(=O)C5CCCCC5)c4)n3)cn2)CC1 [Example 39],> 1 µM,> 1 µM,0.1 to 1 µM,–,0.1 to 1 µM,–
Cc1nc(Cl)sc1S(=O)(=O)Nc1cccc(-c2nc(C(C)C)sc2-c2ccnc(Nc3ccc(N4CCOCC4)nc3)n2)c1 [Example 42],0.1 to 1 µM,> 1 µM,< 0.1 µM,–,< 0.1 µM,–
CC(C)c1nc(-c2cccc(NS(=O)(=O)c3c(F)cccc3F)n2)c(-c2ccnc(Nc3ccc(N4CCOCC4)nc3)n2)s1 [Example 44],0.1 to 1 µM,> 1 µM,< 0.1 µM,–,0.1 to 1 µM,–
COc1ccc(S(=O)(=O)Nc2cccc(-c3nc(C(C)C)sc3-c3ccnc(Nc4ccc(N5CCOCC5)nc4)n3)c2)cn1 [Example 49],< 0.1 µM,> 1 µM,< 0.1 µM,–,< 0.1 µM,–
CC(C)c1nc(-c2cccc(NS(=O)(=O)c3cccs3)c2)c(-c2ccnc(Nc3ccc(N4CCOCC4)nc3)n2)s1 [Example 51],< 0.1 µM,0.1 to 1 µM,< 0.1 µM,–,< 0.1 µM,–
CC(C)c1nc(-c2cccc(NS(=O)(=O)c3cccnc3)c2)c(-c2ccnc(Nc3ccc(N4CCOCC4)nc3)n2)s1 [Example 52],< 0.1 µM,0.1 to 1 µM,< 0.1 µM,–,< 0.1 µM,–
CC(C)c1nc(-c2cccc(NS(=O)(=O)c3ccco3)c2)c(-c2ccnc(Nc3ccc(N4CCOCC4)nc3)n2)s1 [Example 53],< 0.1 µM,> 1 µM,< 0.1 µM,–,< 0.1 µM,–
CC(=O)N1CCN(c2ccc(Nc3nccc(-c4oc(C(C)C)nc4-c4cccc(NS(=O)(=O)c5c(F)cccc5F)c4)n3)cn2)CC1 [Example 56],0.1 to 1 µM,> 1 µM,< 0.1 µM,–,< 0.1 µM,–
CC(C)c1nc(-c2cccc(NS(=O)(=O)c3c(F)cccc3F)c2)c(-c2ccnc(Nc3ccc(N4CCOCC4)c(F)c3)n2)o1 [Example 57],0.1 to 1 µM,> 1 µM,< 0.1 µM,–,0.1 to 1 µM,–
Nc1nc(-c2cccc(NS(=O)(=O)c3c(F)cccc3F)c2)c(-c2ccnc(Nc3ccc(N4CCOCC4)nc3)n2)s1 [Example 62],0.1 to 1 µM,0.1 to 1 µM,< 0.1 µM,–,< 0.1 µM,–
CCNc1nc(-c2cccc(NS(=O)(=O)c3ccccc3)c2)c(-c2ccnc(Nc3ccc(OCCN4CCCC4)c(F)c3)n2)s1 [Example 65],0.1 to 1 µM,< 0.1 µM,–,–,0.1 to 1 µM,0.1 to 1 µM
CC(=O)N1CCN(c2ccc(Nc3nccc(-c4sc(C(C)C)nc4-c4cccc(NS(=O)(=O)c5cccc(C(F)(F)F)c5)c4)n3)cn2)CC1 [Example 70],> 1 µM,> 1 µM,0.1 to 1 µM,–,0.1 to 1 µM,–
CC(C)c1nc(-c2ccc(F)c(NS(=O)(=O)c3c(F)cccc3F)c2)c(-c2ccnc(Nc3ccc(N4CCN5CCOC[C@H]5C4)nc3)n2)s1 [Example 97],> 1 µM,0.1 to 1 µM,< 0.1 µM,–,< 0.1 µM,–
CCOc1ccc(Nc2nccc(-c3sc(C(C)C)nc3-c3ccc(F)c(NS(=O)(=O)c4c(F)cccc4F)c3)n2)cc1N1CCN(CCF)CC1 [Example 98],> 1 µM,< 0.1 µM,0.1 to 1 µM,–,0.1 to 1 µM,–
CC(C)(C)c1nc(-c2ccc(F)c(NS(=O)(=O)c3c(F)cccc3F)c2)c(-c2ccnc(Nc3ccc(N4CCN(CCF)CC4)c(F)c3)n2)s1 [Example 99],> 1 µM,< 0.1 µM,0.1 to 1 µM,–,0.1 to 1 µM,–
CC(C)c1nc(-c2ccnc(NS(=O)(=O)c3c(F)cccc3F)c2)c(-c2ccnc(Nc3ccc(N4CCN(CCF)CC4)c(F)c3)n2)s1 [Example 100],0.1 to 1 µM,> 1 µM,< 0.1 µM,–,< 0.1 µM,–
CC(C)c1nc(-c2cc(F)c(F)c(NS(=O)(=O)c3cccc(F)c3)c2)c(-c2ccnc(Nc3ccc(N4CCN(CCF)CC4)c(F)c3)n2)s1 [Example 101],0.1 to 1 µM,0.1 to 1 µM,0.1 to 1 µM,–,0.1 to 1 µM,–
CC(C)c1nc(-c2ccc(F)c(NS(=O)(=O)c3c(F)cccc3F)c2)c(-c2ccnc(Nc3ccncc3)n2)s1 [Example 102],0.1 to 1 µM,> 1 µM,0.1 to 1 µM,–,0.1 to 1 µM,–

Compound,IC50 [1],IC50 [2],"IC50 ([3]; Homo sapiens, SK-MEL-28, 72 h)",Activity in SK-MEL-3 Tumor Cells [4],IC50 [4],IC50 [3]
CN1CCC(c2nc(-c3ccc(F)c(NS(=O)(=O)c4c(F)cccc4F)c3)c(-c3ccnc(Nc4ccc(N5CCOCC5)nc4)n3)s2)CC1 [Example 106],0.1 to 1 µM,0.1 to 1 µM,0.1 to 1 µM,–,< 0.1 µM,–
CC(C)c1nc(-c2ccc(F)c(NS(=O)(=O)c3ccccc3C#N)c2)c(-c2ccnc(Nc3ccc(N4CCOCC4)nc3)n2)s1 [Example 107],0.1 to 1 µM,0.1 to 1 µM,0.1 to 1 µM,–,0.1 to 1 µM,–
CCOc1ccc(Nc2nccc(-c3sc(N4CCCC4)nc3-c3cccc(NS(=O)(=O)c4c(F)cccc4F)c3)n2)cc1N1CCN(CCS(C)(=O)=O)CC1 [Example 109],0.1 to 1 µM,< 0.1 µM,< 0.1 µM,–,< 0.1 µM,–
CN(C)c1nc(-c2ccc(F)c(NS(=O)(=O)c3c(F)cccc3F)c2)c(-c2ccnc(Nc3ccc(N4CCN(S(C)(=O)=O)CC4)nc3)n2)s1 [Example 112],0.1 to 1 µM,0.1 to 1 µM,0.1 to 1 µM,–,0.1 to 1 µM,–
CC(C)c1nc(-c2ccc(F)c(NS(=O)(=O)c3c(F)cccc3F)c2)c(-c2ccnc(Nc3cccc(CCS(N)(=O)=O)c3)n2)s1 [Example 113],> 1 µM,< 0.1 µM,0.1 to 1 µM,–,0.1 to 1 µM,–
O=S(=O)(Nc1cc(-c2nc(N3CCCC3)oc2-c2ccnc(Nc3ccc(N4CCN(CCF)CC4)c(F)c3)n2)ccc1F)c1c(F)cccc1F [Example 114],> 1 µM,0.1 to 1 µM,0.1 to 1 µM,+ (activity of >1 μM in SK-MEL-3 tumor cells),–,–
Cc1cc(Nc2nccc(-c3sc(C(C)C)nc3-c3ccc(F)c(NS(=O)(=O)c4c(F)cccc4F)c3)n2)ccn1 [Example 116],0.1 to 1 µM,0.1 to 1 µM,< 0.1 µM,–,0.1 to 1 µM,–
CC(C)c1nc(-c2ccc(F)c(NS(=O)(=O)c3c(F)cccc3F)c2)c(-c2ccnc(Nc3ccnc(N4CCOCC4)c3)n2)s1 [Example 117],0.1 to 1 µM,< 0.1 µM,< 0.1 µM,–,0.1 to 1 µM,–
COc1cc(N2CCN(CCS(C)(=O)=O)CC2)c(C)cc1Nc1nccc(-c2sc(C(C)(C)C)nc2-c2cccc(NS(=O)(=O)c3c(F)cccc3F)c2)n1 [Example 120],0.1 to 1 µM,< 0.1 µM,0.1 to 1 µM,–,< 0.1 µM,–
O=S(=O)(Nc1cc(-c2nc(N3CCOCC3)sc2-c2ccnc(Nc3ccc(N4CCOCC4)nc3)n2)ccc1F)c1c(F)cccc1F [Example 121],0.1 to 1 µM,0.1 to 1 µM,0.1 to 1 µM,–,0.1 to 1 µM,–
O=S(=O)(Nc1cccc(-c2nc(N3CCOCC3)sc2-c2ccnc(Nc3ccc(N4CCOCC4)nc3)n2)c1F)c1c(F)cccc1F [Example 122],< 0.1 µM,0.1 to 1 µM,< 0.1 µM,–,< 0.1 µM,–
CC(C)c1nc(-c2cccc(NS(=O)(=O)c3c(F)cccc3F)c2F)c(-c2ccnc(Nc3ccc(N4CCOCC4)nc3)n2)s1 [Example 123],< 0.1 µM,> 1 µM,< 0.1 µM,–,< 0.1 µM,–
Cc1cc(N2CCOCC2)ncc1Nc1nccc(-c2sc(N3CCCC3)nc2-c2cccc(NS(=O)(=O)c3c(F)cccc3F)c2)n1 [Example 124],> 1 µM,0.1 to 1 µM,0.1 to 1 µM,+ (activity of >1 μM in SK-MEL-3 tumor cells),–,–
CN1CCN(c2nc(-c3ccc(F)c(NS(=O)(=O)c4c(F)cccc4F)c3)c(-c3ccnc(Nc4ccc(N5CCOCC5)nc4)n3)s2)CC1 [Example 126],0.1 to 1 µM,0.1 to 1 µM,< 0.1 µM,–,0.1 to 1 µM,–
O=S(=O)(Nc1cc(-c2nc(N3CCOCC3)sc2-c2ccnc(Nc3ccc4c(c3)OCCO4)n2)ccc1F)c1c(F)cccc1F [Example 127],> 1 µM,0.1 to 1 µM,0.1 to 1 µM,+ (activity of >1 μM in SK-MEL-3 tumor cells),–,–
COc1cc(N2CCN(CCS(C)(=O)=O)CC2)c(C)cc1Nc1nccc(-c2sc(N3CCOCC3)nc2-c2cccc(NS(=O)(=O)c3c(F)cccc3F)c2)n1 [Example 128],< 0.1 µM,< 0.1 µM,0.1 to 1 µM,–,< 0.1 µM,–
CS(=O)(=O)c1cccc(Nc2nccc(-c3sc(N4CCOCC4)nc3-c3cccc(NS(=O)(=O)c4c(F)cccc4F)c3F)n2)c1 [Example 130],< 0.1 µM,0.1 to 1 µM,< 0.1 µM,–,< 0.1 µM,–
Cc1cc(N2CCN(CCS(C)(=O)=O)CC2)ncc1Nc1nccc(-c2sc(C(C)C)nc2-c2cccc(NS(=O)(=O)c3c(F)cccc3F)c2)n1 [Example 131],< 0.1 µM,0.1 to 1 µM,< 0.1 µM,–,< 0.1 µM,–
